These results are taken from ChEMBL document CHEMBL5154863, “Design and synthesis of quinolinium-based derivatives targeting FtsZ for antibacterial evaluation and mechanistic study” (Eur J Med Chem, 2022).

Some results are limits rather than exact numbers.

Common to all, as to assay type: functional
Settings in all cases: time 20-24 hrs

Test [1] concerns Staphylococcus aureus. Nature of the test: Antibacterial activity against Staphylococcus aureus ATCC 29213 assessed as inhibition of bacterial growth incubated for 20 to 24 hrs by broth micro dilution method.
The test system of test [2] is Staphylococcus aureus. The test can be described thus: Antibacterial activity against methicillin-resistant Staphylococcus aureus ATCC 43300 assessed as inhibition of bacterial growth incubated for 20 to 24 hrs by broth micro dilution method.
For test [3], the system named is Staphylococcus aureus. Nature of the test: Antibacterial activity against methicillin-resistant Staphylococcus aureus ATCC 33592 assessed as inhibition of bacterial growth incubated for 20 to 24 hrs by broth micro dilution method.
Test [4] has as its system Staphylococcus aureus. The test can be described thus: Antibacterial activity against methicillin-resistant Staphylococcus aureus ATCC BAA-1720 assessed as inhibition of bacterial growth incubated for 20 to 24 hrs by broth micro dilution method.
In test [5] the test system is Staphylococcus aureus. The test can be described thus: Antibacterial activity against vancomycin-intermediate Staphylococcus aureus Mu50 assessed as inhibition of bacterial growth incubated for 20 to 24 hrs by broth micro dilution method.
Test [6] concerns Staphylococcus epidermidis. Nature of the test: Antibacterial activity against Staphylococcus epidermidis ATCC 12228 assessed as inhibition of bacterial growth incubated for 20 to 24 hrs by broth micro dilution method.
Another test deals with Bacillus subtilis. The test can be described thus: Antibacterial activity against Bacillus subtilis CMCC (B) 63501 assessed as inhibition of bacterial growth incubated for 20 to 24 hrs by broth micro dilution method.
In test [7] the test system is Enterococcus faecium. The test can be described thus: Antibacterial activity against Enterococcus faecium ATCC 49624 assessed as inhibition of bacterial growth incubated for 20 to 24 hrs by broth micro dilution method.
A further test deals with Enterococcus faecalis. The test can be described thus: Antibacterial activity against Enterococcus faecalis ATCC 29212 assessed as inhibition of bacterial growth incubated for 20 to 24 hrs by broth micro dilution method.
The subject of test [8] is Enterococcus faecium. The test can be described thus: Antibacterial activity against vancomycin resistant Enterococcus faecium ATCC 700221 assessed as inhibition of bacterial growth incubated for 20 to 24 hrs by broth micro dilution method.
Test [9] has as its system Enterococcus faecium. The test can be described thus: Antibacterial activity against vancomycin-resistant Enterococcus faecium clinical isolate assessed as inhibition of bacterial growth incubated for 20 to 24 hrs by broth micro dilution method.
For test [10], the system named is Escherichia coli. Nature of the test: Antibacterial activity against Escherichia coli ATCC 25922 assessed as inhibition of bacterial growth incubated for 20 to 24 hrs by broth micro dilution method.
For test [11], the system named is Escherichia coli. The test can be described thus: Antibacterial activity against Escherichia coli ATCC 8739 assessed as inhibition of bacterial growth incubated for 20 to 24 hrs by broth micro dilution method.
Test [12] concerns Escherichia coli. Nature of the test: Antibacterial activity against NDM-1 expressing Escherichia coli ATCC BAA2469 assessed as inhibition of bacterial growth incubated for 20 to 24 hrs by broth micro dilution method.
In the next test the test system is Acinetobacter baumannii. Nature of the test: Antibacterial activity against multi-drug resistant Acinetobacter baumannii ATCC 19606 assessed as inhibition of bacterial growth incubated for 20 to 24 hrs by broth micro dilution method.
Another test has as its system Pseudomonas aeruginosa. Nature of the test: Antibacterial activity against […] Pseudomonas aeruginosa ATCC 27853 assessed as inhibition of bacterial growth incubated for 20 to 24 hrs by broth micro dilution method.
The test system of the next test is Klebsiella pneumoniae. The test can be described thus: Antibacterial activity against NDM-1 expressing Klebsiella pneumoniae ATCC BAA 2470 assessed as inhibition of bacterial growth incubated for 20 to 24 hrs by broth micro dilution method.

With `CCCCNc1cc(/C=C/c2ccc(N(C)C)cc2)c2ccccc2[n+]1C.[I-]`, the MIC with Staphylococcus aureus [1] amounted to 32 µg/mL; with Staphylococcus aureus [2], 16 µg/mL; in the test on Staphylococcus aureus [3] it was 32 µg/mL; in the test with Staphylococcus aureus [4], 16 µg/mL; in the test with Staphylococcus aureus [5], 16 µg/mL; in test [6], 16 µg/mL. The MIC with Bacillus subtilis is 8 µg/mL; with Enterococcus faecium [7] it was 16 µg/mL; in the test on Enterococcus faecalis it was 32 µg/mL; in the test on Enterococcus faecium [8], 8 µg/mL; with Enterococcus faecium [9], 8 µg/mL; in the test on Escherichia coli [10], greater than 64 µg/mL. The MIC in the test with Escherichia coli [11], in the test with Escherichia coli [12], in the test with Acinetobacter baumannii, in the test with Pseudomonas aeruginosa and with Klebsiella pneumoniae was greater than 64 µg/mL in each case.
As to `CN(C)c1ccc(/C=C/c2cc(N3CCOCC3)[n+](C)c3ccccc23)cc1.[I-]`, the MIC was 32 µg/mL in the test with Staphylococcus aureus [1]; greater than 64 µg/mL in the test with Staphylococcus aureus [2]; 64 µg/mL in the test on Staphylococcus aureus [3]; greater than 64 µg/mL in the test with Staphylococcus aureus [4]; 32 µg/mL in the test on Staphylococcus aureus [5]; 16 µg/mL in test [6]. Further, the minimal inhibitory concentration (MIC) in the test with Bacillus subtilis was 16 µg/mL; in the test with Enterococcus faecium [7] it was 8 µg/mL; in the test with Enterococcus faecalis, greater than 64 µg/mL; with Enterococcus faecium [8], 32 µg/mL; in the test with Enterococcus faecium [9], greater than 64 µg/mL; with Escherichia coli [10] it was greater than 64 µg/mL. Moreover, the minimum inhibitory concentration (MIC) in the test on Escherichia coli [11], in the test with Escherichia coli [12], in the test on Acinetobacter baumannii, in the test with Pseudomonas aeruginosa and with Klebsiella pneumoniae was greater than 64 µg/mL each time.
On to `CN(C)c1ccc(/C=C/c2cc(NCCCO)[n+](C)c3ccccc23)cc1.[I-]`, for which the minimal inhibitory concentration (MIC) with Staphylococcus aureus [1] is greater than 64 µg/mL; with Staphylococcus aureus [2] it was greater than 64 µg/mL; in the test on Staphylococcus aureus [3], 64 µg/mL; with Staphylococcus aureus [4], 64 µg/mL; in the test with Staphylococcus aureus [5], 64 µg/mL; in test [6], 64 µg/mL. Moreover, the MIC with Bacillus subtilis was 32 µg/mL; in the test on Enterococcus faecium [7] it was greater than 64 µg/mL; with Enterococcus faecalis it was greater than 64 µg/mL; in the test with Enterococcus faecium [8], 64 µg/mL; with Enterococcus faecium [9] it was 64 µg/mL; with Escherichia coli [10] it was greater than 64 µg/mL. In addition, the MIC in the test on Escherichia coli [11], in the test on Escherichia coli [12], with Acinetobacter baumannii, with Pseudomonas aeruginosa and in the test with Klebsiella pneumoniae was greater than 64 µg/mL throughout.
`CN(C)c1ccc(/C=C/c2cc(N3CCCC3)c3ccccc3[n+]2C)cc1.[I-]`: the MIC with Staphylococcus aureus [1] came out at 1 µg/mL; with Staphylococcus aureus [2], 2 µg/mL; in the test on Staphylococcus aureus [3] it was 1 µg/mL; in the test with Staphylococcus aureus [4] it was 8 µg/mL; in the test on Staphylococcus aureus [5], 1 µg/mL; in test [6], 1 µg/mL. For the same compound, the minimal inhibitory concentration (MIC) is 4 µg/mL in the test on Bacillus subtilis; 4 µg/mL with Enterococcus faecium [7]; 2 µg/mL in the test with Enterococcus faecalis; 2 µg/mL with Enterococcus faecium [8]; 4 µg/mL in the test with Enterococcus faecium [9]; 4 µg/mL in the test on Escherichia coli [10]. The MIC was 16 µg/mL with Escherichia coli [11]; 64 µg/mL with Escherichia coli [12]; 32 µg/mL in the test on Acinetobacter baumannii; greater than 64 µg/mL in the test with Pseudomonas aeruginosa; greater than 64 µg/mL in the test with Klebsiella pneumoniae.
Regarding `CN(C)c1ccc(/C=C/c2cc(NCCCc3ccccc3)c3ccccc3[n+]2C)cc1.[I-]`, the minimal inhibitory concentration (MIC) was 2 µg/mL in the test with Staphylococcus aureus [1]; 2 µg/mL in the test on Staphylococcus aureus [2]; 2 µg/mL in the test on Staphylococcus aureus [3]; 2 µg/mL in the test on Staphylococcus aureus [4]; 4 µg/mL with Staphylococcus aureus [5]; 2 µg/mL in test [6]. The MIC in the test with Bacillus subtilis is 4 µg/mL; with Enterococcus faecium [7], 4 µg/mL; with Enterococcus faecalis it was 8 µg/mL; with Enterococcus faecium [8] it was 4 µg/mL; in the test on Enterococcus faecium [9], 4 µg/mL; with Escherichia coli [10] it was greater than 64 µg/mL. Also, the MIC with Escherichia coli [11], with Escherichia coli [12], in the test on Acinetobacter baumannii, with Pseudomonas aeruginosa and with Klebsiella pneumoniae was greater than 64 µg/mL in each case.
`CN(C)c1ccc(/C=C/c2cc(N3CCCC3)[n+](C)c3ccccc23)cc1.[I-]`: the MIC in the test on Staphylococcus aureus [1] came out at 4 µg/mL; in the test on Staphylococcus aureus [2] it was 16 µg/mL; with Staphylococcus aureus [3], 16 µg/mL; in the test with Staphylococcus aureus [4], 16 µg/mL; with Staphylococcus aureus [5], 8 µg/mL; in [6], 2 µg/mL. Besides, the minimum inhibitory concentration (MIC) with Bacillus subtilis amounted to 16 µg/mL; in the test on Enterococcus faecium [7], 16 µg/mL; with Enterococcus faecalis it was 64 µg/mL; in the test on Enterococcus faecium [8], 8 µg/mL; in the test on Enterococcus faecium [9], 16 µg/mL; in the test with Escherichia coli [10] it was 16 µg/mL. The MIC was 32 µg/mL in the test on Escherichia coli [11]; 64 µg/mL in the test with Escherichia coli [12]; greater than 64 µg/mL in the test with Acinetobacter baumannii; greater than 64 µg/mL in the test with Pseudomonas aeruginosa; greater than 64 µg/mL in the test with Klebsiella pneumoniae.
For the compound `CCCCNc1cc(/C=C/c2ccc(N(C)C)cc2)[n+](C)c2ccccc12.[I-]`, the minimum inhibitory concentration (MIC) with Staphylococcus aureus [1] worked out at 4 µg/mL; in the test with Staphylococcus aureus [2] it was 4 µg/mL; in the test with Staphylococcus aureus [3], 2 µg/mL; in the test with Staphylococcus aureus [4], 2 µg/mL; with Staphylococcus aureus [5] it was 4 µg/mL; in test [6], 2 µg/mL. In addition, the MIC turned out to be 8 µg/mL with Bacillus subtilis; 16 µg/mL in the test with Enterococcus faecium [7]; 2 µg/mL in the test with Enterococcus faecalis; 4 µg/mL in the test with Enterococcus faecium [8]; 8 µg/mL in the test on Enterococcus faecium [9]; 32 µg/mL in the test on Escherichia coli [10]. The MIC with Escherichia coli [11], with Escherichia coli [12], in the test on Acinetobacter baumannii, in the test with Pseudomonas aeruginosa and with Klebsiella pneumoniae was greater than 64 µg/mL in each case.
For the compound `CCCNc1cc(/C=C/c2ccc(N(C)C)cc2)c2ccccc2[n+]1C.[I-]`, the MIC with Staphylococcus aureus [1] was greater than 64 µg/mL; with Staphylococcus aureus [2], 32 µg/mL; with Staphylococcus aureus [3], greater than 64 µg/mL; in the test on Staphylococcus aureus [4], 16 µg/mL; with Staphylococcus aureus [5], 32 µg/mL; in test [6] it was 32 µg/mL. The MIC with Bacillus subtilis was 16 µg/mL; with Enterococcus faecium [7], 32 µg/mL; in the test on Enterococcus faecalis it was 64 µg/mL; in the test with Enterococcus faecium [8] it was 16 µg/mL; in the test with Enterococcus faecium [9], 16 µg/mL; in the test with Escherichia coli [10], greater than 64 µg/mL. Further, the MIC with Escherichia coli [11], with Escherichia coli [12], in the test with Acinetobacter baumannii, in the test on Pseudomonas aeruginosa and in the test with Klebsiella pneumoniae was greater than 64 µg/mL throughout.
